Data as given in the supplement of paper PMC11451515.

How the values were obtained:
Conditions in all cases: 48 h
SEM cells [1] = assay: AUC of viability dose-response curve (% viability x log10 dose units); higher = less sensitive
Outline: (§1)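 Medium-adapted leukemia cells in 1536-well plates, at 500 or 1000 cells/well, were incubated for 48 h at 37°C with library compounds in DMSO at 11 threefold doses from 47 μM to 0.79 nM. CellTiter-Glo One luminescence normalised per plate to DMSO and cell-free wells was fitted with a four-parameter log-logistic model over log10 doses. Area under the curve was integrated from this fit by trapezoidal rule, with curves beyond full viability scaled and failed quality-control curves removed.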

NOMO1 [2] = assay: as above
Outline: as §1

P12-Ichikawa [3] = assay: as above
Outline: as §1

SEM cells [4] = assay: cell viability relative to DMSO control; higher = less cytotoxic
Outline: (§2)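 Library compounds in DMSO were pin-dosed in an 11-point threefold series (47 μM to 0.79 nM) onto leukemia cells in 1536-well plates (5 μl). Plates held 500 cells/well of NOMO1 or SEM or 1000 cells/well of P12-Ichikawa, each adapted for at least four passages in each medium. Luminescence was read with CellTiter-Glo One after 48 h at 37°C. Viability means the per-plate percentage relative to DMSO wells, using cell-free wells as background.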

NOMO1 [5] = assay: as above
Outline: as §2

P12-Ichikawa [6] = assay: as above
Outline: as §2

C/C=C/C(=O)N(CC)c1ccccc1C
AUC of viability dose-response curve
Conditions	NOMO1 [2]	P12-Ichikawa [3]	SEM cells [1]
HPLM + 10% dialyzed FBS	393	458	434
RPMI 5 mM glucose + 10% FBS	431	470	465
RPMI 5 mM glucose + 10% dialyzed FBS	399	432	428

CCOC(=O)\C1=C\[C@]2(CC)CCCN3CCC4=C([C@H]23)[N]1C5=C4C=CC=C5
cell viability [%]
Conditions	NOMO1 [5]	P12-Ichikawa [6]	SEM cells [4]
HPLM + 10% dialyzed FBS, 0.000781 µM	104	98.7	71.6
HPLM + 10% dialyzed FBS, 0.00234 µM	118	106	100
HPLM + 10% dialyzed FBS, 0.00702 µM	122	107	87.6
HPLM + 10% dialyzed FBS, 0.0211 µM	124	104	111
HPLM + 10% dialyzed FBS, 0.0632 µM	125	111	118
HPLM + 10% dialyzed FBS, 0.19 µM	126	105	103
HPLM + 10% dialyzed FBS, 0.569 µM	131	110	104
HPLM + 10% dialyzed FBS, 1.71 µM	123	102	111
HPLM + 10% dialyzed FBS, 5.12 µM	124	115	114
HPLM + 10% dialyzed FBS, 15.4 µM	126	108	97.7
HPLM + 10% dialyzed FBS, 46.1 µM	54.5	101	80.7
RPMI 5 mM glucose + 10% FBS, 0.000781 µM	95.3	99.6	103
RPMI 5 mM glucose + 10% FBS, 0.00234 µM	103	118	104
RPMI 5 mM glucose + 10% FBS, 0.00702 µM	113	109	111
RPMI 5 mM glucose + 10% FBS, 0.0211 µM	113	110	114
RPMI 5 mM glucose + 10% FBS, 0.0632 µM	123	123	121
RPMI 5 mM glucose + 10% FBS, 0.19 µM	120	111	112
RPMI 5 mM glucose + 10% FBS, 0.569 µM	135	109	110
RPMI 5 mM glucose + 10% FBS, 1.71 µM	113	116	108
RPMI 5 mM glucose + 10% FBS, 5.12 µM	102	111	109
RPMI 5 mM glucose + 10% FBS, 15.4 µM	111	114	107
RPMI 5 mM glucose + 10% FBS, 46.1 µM	57.7	79.6	77.1
RPMI 5 mM glucose + 10% dialyzed FBS, 0.000781 µM	91.8	89.5	93.7
RPMI 5 mM glucose + 10% dialyzed FBS, 0.00234 µM	105	106	111
RPMI 5 mM glucose + 10% dialyzed FBS, 0.00702 µM	118	109	112
RPMI 5 mM glucose + 10% dialyzed FBS, 0.0211 µM	122	104	108
RPMI 5 mM glucose + 10% dialyzed FBS, 0.0632 µM	108	107	116
RPMI 5 mM glucose + 10% dialyzed FBS, 0.19 µM	113	108	124
RPMI 5 mM glucose + 10% dialyzed FBS, 0.569 µM	119	113	126
RPMI 5 mM glucose + 10% dialyzed FBS, 1.71 µM	110	105	108
RPMI 5 mM glucose + 10% dialyzed FBS, 5.12 µM	108	105	118
RPMI 5 mM glucose + 10% dialyzed FBS, 15.4 µM	105	109	105
RPMI 5 mM glucose + 10% dialyzed FBS, 46.1 µM	70.5	65.7	94.7

AUC of viability dose-response curve
Conditions	NOMO1 [2]	P12-Ichikawa [3]	SEM cells [1]
HPLM + 10% dialyzed FBS	464	469	464
RPMI 5 mM glucose + 10% FBS	464	470	469
RPMI 5 mM glucose + 10% dialyzed FBS	466	468	476
